# Measured values as given in paper PMC3375286, “Crystal Structures Reveal the Multi-Ligand Binding Mechanism of Staphylococcus aureus ClfB” (PLoS Pathogens, 2012).
# Where no end group is shown, it is not given here.
# T1: ClfB(197–542) wildtype (Staphylococcus aureus, UniProt O86476)
# T1 construct: The fragment of the ClfB gene (corresponding 197–542 aa) was amplified by PCR; His-tag; made in house; host or cells: E. coli BL21
# T1 sequence (O86476 197-542): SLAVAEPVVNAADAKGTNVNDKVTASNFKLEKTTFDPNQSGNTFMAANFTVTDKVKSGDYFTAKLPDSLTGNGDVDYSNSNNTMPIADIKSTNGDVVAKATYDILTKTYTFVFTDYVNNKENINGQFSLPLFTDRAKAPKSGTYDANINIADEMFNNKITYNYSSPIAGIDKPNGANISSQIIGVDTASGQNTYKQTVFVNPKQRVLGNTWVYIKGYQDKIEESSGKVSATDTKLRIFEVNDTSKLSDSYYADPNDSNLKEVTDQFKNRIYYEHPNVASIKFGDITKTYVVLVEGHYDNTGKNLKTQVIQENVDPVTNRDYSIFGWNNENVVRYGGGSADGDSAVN
# T2: ClfB (Staphylococcus aureus, UniProt O86476)
# T2 construct: The fragment of the ClfB gene (corresponding 197–542 aa) was amplified by PCR; His-tag; made in house; host or cells: E. coli BL21
# T2 sequence (O86476 197-542): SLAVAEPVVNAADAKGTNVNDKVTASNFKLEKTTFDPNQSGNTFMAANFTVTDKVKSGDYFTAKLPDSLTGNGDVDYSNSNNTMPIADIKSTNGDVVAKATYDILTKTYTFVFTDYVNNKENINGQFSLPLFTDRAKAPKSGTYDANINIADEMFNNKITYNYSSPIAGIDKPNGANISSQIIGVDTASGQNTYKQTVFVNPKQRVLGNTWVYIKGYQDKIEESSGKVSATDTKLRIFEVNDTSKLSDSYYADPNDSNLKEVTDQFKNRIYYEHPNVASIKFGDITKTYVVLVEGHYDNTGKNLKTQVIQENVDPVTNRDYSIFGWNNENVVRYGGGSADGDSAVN
# T3: Dermokine (Homo sapiens)
# T3 chain: SQSGSSGSGSNGDNN
# Target: T1, ClfB(197–542) wildtype
# Experiment: SPR (ProteOn XPR36) binding of ClfB(197–542) wild type to immobilized peptide 15 from Dermokine
# Settings: SPR ProteOn XPR36, peptide captured on NLC Sensor Chip (460 RU), 25°C, 10 mM HEPES pH 7.2, 150 mM NaCl; ClfB(197–542) injected at 87.5-700 µM; repeated three times; read-out: dissociation constant (KD)
# Experimental: Firstly, Derm was tested for its interaction with ClfB. To this end, we synthesized a 15-amino-acid-peptide (250–264; […], designated as Derm15 hereafter) derived from Derm and then characterized its binding to ClfB using the SPR (Surface Plasmon Resonance) assay. In the assay, ClfB bound to the peptide with a dissociation constant of 2.37 µM (Figure 7A). […] To understand the molecular mechanism underlying this interaction, we solved the crystal structure of ClfB(208–542) bound to the peptide at 2.5 Å resolution. As expected, Derm15 interacts with ClfB in a nearly identical manner with Fg α(316–328) and CK10(499–512) (Figure 7 B). The ClfB^Arg529 forms a hydrogen bond with […] and the C-terminus of N3 forms an extra strand, which is similar as that in the ClfB-Fg α(316–328) and ClfB-CK10(499–512) complexes (Figure 7 C). Mutagenesis studies were conducted to further verify the binding of Derm15 to ClfB. We replaced the residues ClfB^S236, W522 that participate in interactions with the peptide with alanine respectively. The mutant proteins were purified to homogeneity and tested for their interaction with the Derm peptide using SPR.
# Figure 7 Dermokine is a potential ligand of ClfB. […] Red, 700 µM; blue, 350 µM; green, 87.5 µM. […]
# Binding of ClfB(197–542) to peptide 15 was assessed by SPR using the ProteOn XPR36 equipment (Bio-Rad Laboratories, Inc.). […]
row,Molecule,Kd [µM]
1,GQSGSSGSGSNGDNN [Derm15],2.37

# Target: T2, ClfB
# Experiment: SPR (BIAcore T200) alanine scan of 9-residue GSR peptides and the 6-residue peptide on immobilized ClfB
# Format: binding
# Settings: SPR BIAcore T200, 10°C; ClfB amine-coupled (~5300 RU) on CM5 chip; peptides 31.25-2000 µM in 10 mM HEPES pH 7.4, 150 mM NaCl, 0.005% Tween 20; 30 µl/min; 1:1 Langmuir fit
# Experimental: A. Panel of dermokine peptides. […] Navy, 2000 µM; Magenta, 1000 µM; Dark cyan or dark yellow, 500 µM; Blue, 250 µM; Red, 125 µM; Green, 62.5 µM; Black, 31.25 µM.
# The binding affinities between ClfB and the ten 9-amino–acid peptides and the 6-amino-acid peptide were determined by surface plasmon resonance (SPR) using BIAcore T200 instrument (GE Healthcare) at 10°C. The ClfB protein was immobilized to about 5300 Response Unit (RU) on a research-grade CM5 sensor chip in 10 mM sodium acetate, pH 5.0 by standard amine coupling method. The flow cell 1 was left blank as a reference. […] The ligands were allowed to associate for 60 s and dissociate for 120 s. Data were analyzed with the BIAcore T200 evaluation software by fitting to a 1∶1 Langmuir binding fitting model.
row,Molecule,Kd [µM]
1,ASSGSGSNG [Peptide2],1600
2,GASGSGSNG [Peptide3],1240
3,GSAGSGSNG [Peptide4],502
4,GSSASGSNG [Peptide5],1140
5,GSSGAGSNG [Peptide6],195
6,GSSGSASNG [Peptide7],1610
7,GSSGSG [Peptide11],833
8,GSSGSGANG [Peptide8],326
9,GSSGSGSAG [Peptide9],403
10,GSSGSGSNA [Peptide10],1170

# Target: T3, Dermokine
# Experiment: SPR
# Settings: not given
row,Molecule,Kd [µM]
1,Clumping factor B 197-542 (protein) SLAVAEPVVNAADAKGTNVNDKVTASDFKLEKTAFDPNQSGNTFMAANFKVTGQVKSGDYFTAKLPDSVTGNGDVDYSNSNNTMPIADIKSTNGDVVAKATYDILTKTYTFVFTDYVNDKENINGQFSLPLFTDRAKAPKSGTYDANINIADEMFDNKITYNYSSPIAGIDKPNGANISSQIIGVDTASGQNTYKQTVFVNPKQRVLGNTWVYIKGYQDKIEESSGKVSATDTKLRIFEVNDTSKLSDSYYADPNDSNLKEVTGEFKDKISYKYDNVASINFGDINKTYVVLVEGHYDNTGKNLKTQVIQENIDPATGKDYSIFGWNNENVVRYGGGSADGDSAVN,2.37
